Data reported in US7282215B2, “Supports for photosensitizer formulations” (The University of British Columbia, priority 2000, dated 2007).
Where two headings read alike, the source gives them in different places. Marks after values point to notes of the source that are not given here.

Experiments:
[1] = Drug loading of liposomal versus 10% P123 formulations; assay type: physicochemical; settings: prepared at 2 mg/ml; for Drug loading, P123: Pluronic P123 10% weight/volume; for Drug loading, Liposome: liposomal formulation
Description: 5 mg drug and lipids (40% EPG in DMPC) are combined in CH2Cl2 at a drug to lipid ratio of 1:10 w/w in 250 ml round bottom flask. The maximum concentration of drug in solvent is 2 mg/ml. CH2Cl2 is removed rapidly as described in Example 5. The resulting thin film is hydrated with 2.5 ml lactose solution (9.5% w/v) using hand swirling with glass beads at 40° C. Extrusion using Model 4T (Lipex Biomembranes Inc. B.C., Canada) is carried out with the thermostat set at 40° C. The multilamellar vesicles (MLVs) arising from hydration steps of the liposomal formulation were also examined under the microscope. MLVs are successively extruded 5 times through each of the 400 nm, 200 nm and 100 nm polycarbonate membranes (Nuclepore PC, Costar). Extruded samples were diluted 1:100 in PBS (pH 7.4) and the absorbance determined at 690 nm wavelength.
In this experiment liposomal and block copolymer (micellar) photosensitizer formulations of A- and B-ring compounds of EA6 and B3 were compared. Each of the photosensitizer samples was prepared at a final drug concentration of 2 mg/ml. The block copolymer P123, and the liposomal formulations were prepared as described in the Examples 5 and 6, respectively.

[2] = Vesicle size of liposomal A-EA6 after microfluidization; assay type: physicochemical
[3] = as above; assay type: physicochemical; settings: for Size: 10 mL batch
Description: MLVs obtained from each of the conventional and micro-thin films of EA6-A in 3% w/w DMPG/DMPC prepared in Example 24 were introduced into the reaction chamber of a small microfluidizer (23 ml capacity; M110S, Microfluidics). […] The reaction chamber was immersed in ice, with the pressure transducer (Dynisco μPR 690) setting adjusted to 10,000 psi.
Use of the microfluidizer required priming the system with 9.2% lactose. The dead volume retained was considerably higher than stated in the manual, and as a result, only ˜2 mL of undiluted sample was recovered after the first pass in each case. […] Processing was carried out for a total of 6 passes, with 200 μl samples being removed for particle sizing following every pass. Due to limited recovery and dilution of the above samples, 2 larger batches (20 mL) were prepared using the conventional thin film process, and microfluidized with a total of 5 passes. To avoid excessive dilution of the unilammelar vesicles, recovery was limited to 8 mL.
Microfluidisation was repeated with larger volumes of 20 mL. […] The final concentration of A-EA6 in both batches (HH02-5 A and HH02-5 B) was 1.5 mg/mL. These samples were processed with the microfluidiser in a hot water bath at 45° C. instead of ice to prevent suspension temperature falling below the phase transition of DMPC in between passes. Size determination was carried out by laser light scattering on a NICOMP™ 370 Submicron Particle Sizer.

[4] = Liposomal drug release to FBS by fluorescence (Ffbs/Ftx); assay type: in vitro ADME, bovine; settings: 37° C., n=2
Description: This experiment test drug release from micro-thin film preparations and conventional thin film vesicles (76 nm and 98 nm) produced in Example 25. The assay was carried out using an Aminco-Bowman 2 Fluorescence Spectrometer. It has previously been observed in the liposomal photosensitizer formulations that the fluorescence from the photosensitizer drug is quenched due to the high ratio of drug to lipid present. […] Fluorescence signal from liposomal suspensions is therefore low, and increases only when the drug leaves the bilayer for an alternative binding site.
The increase in fluorescence signal reflects liposomal drug transfer in proportion to the rate and extent of transfer to added serum components.
The liposomal suspension is diluted with 5% Dextrose to give an absorbance of 0.1 at the excitation wavelength (430 nm). […] 100 μl of FBS is added to the cuvette, and increase in fluorescence is monitored (following a quick couple of inversions) over 2-3 min if necessary. Once a steady level is achieved (noted as Ffbs), the liposomal system is disrupted using 0.05% v/v Triton X-100 to get a 100% drug level. The maximum fluorescence level is noted as Ftx. The ratio of Ffbs/Ftx gives an estimation of liposomal drug release, and is highly reproducible (SD ˜0-2% for n=5). Reported release results are based on 2-5 repeat assays depending on instrumental stability.

[5] = system: L1210 cells; test: In vitro phototoxicity (MTT assay after light exposure); assay type: cell-based
Description: Exposure to drugs was carried out in the presence and absence of fetal calf serum (FCS) as a model to study transfer of drug to cells in vivo. […] A suspension of L1210 cells was prepared and exposed to various drug formulations (drug concentrations ranging from 0-50 ng/ml) either in the absence or presence of 10% fetal calf serum (FCS). One hour later, the drug was removed by pelleting the cells by centrifugation. The pellet was briefly washed with 1 ml DME and resuspended in 5% FCS/DME. 100 μl of the cell suspension was aliquoted into 6 wells of a 96 well plate, and the plate exposed to light at 10 J/cm^2. Viability was determined 24 h post exposure using the MTT assay (Mosmann, J. Immunol. Meth. 65:55-63, 1983).

[6] = system: M1 rhabdomyosarcoma tumor; test: PDT tumor recurrence in tumor mouse model; assay type: in vivo, DBA/2 mouse; set-up: key to Percent (%) Mice Tumor Free: Mice suffered from phototoxic (PT) reaction at the site of light exposure and were subsequently euthanized
Description: Photosensitizer formulations were prepared in 10% w/v Pluronics as described in Example 4. BPD-MA was formulated in F127. B-ring compounds B-EA6 and B-B3, were prepared in P123 due to insufficient drug loading in F127. Liposomal BPD-MA formulation was Verteporfin™ and B-ring compounds were formulated in the same lipid composition. Where DMSO/plasma preparations were made, the DMSO dissolved drug was added directly to mouse plasma and the drug association with different plasma components was observed.
In these experiments the tumor model used was the DBA/2 mouse (males) inoculated intradermally with M1 rhabdomyosarcoma tumor cells (M1, ATCC. When tumors reached a diameter of 4-6 mm, the mice (n=10, unless other wise stated) were treated with photodynamic therapy (PDT). PDT involved intravenous injection of the formulated drug in 0.2 mL volume of PBS. This was followed by exposure of the tumor region to laser light (Argon pumped dye laser (5W), 690 nm, 50J/cm2) 15 min later. Animals were then monitored for tumor recurrence over a 20 day period post treatment.

[7] = pH studies of copolymer formulations; assay type: physicochemical; settings: acidification
Source text: Counteracting the oily nature of P123 could be achieved by incorporation of copolymer that is in solid form at room temperature. The use of 1% w/w F127 with 9% w/v P123 instead of 10% P123 (w/v) produced a thin film, which was more readily hydrated. […] This necessitates hydration of the solid drug-polymer with a very mild buffer to counteract acidification which occurs upon use of sterile packed distilled water as commonly practiced in clinical settings. Behavior of poloxamers is unaffected by pH, and the use of buffers would be entirely dependent on ionizable groups present on the drug substance.

[8] = JM4 at 2 mg/ml, after overnight storage and centrifugation
Description: 1 to 2 mg drug and 25-100 mg Pluronic are combined in methylene dichloride (CH2Cl2) to yield drug concentration of 1 mg/ml. CH2Cl2 is removed rapidly by rotary evaporation (Rotavapor R-124, Bucchi B172 Vacobox pump) at 50°, at maximum speed of rotation. Once a steady minimum pressure is achieved, the flask is held under vacuum for a further 20-30 min. […] Samples are kept overnight at room temperature to allow unincorporated drug to fall out, and then spun at 14,000 rpm {Eppendorff, Microfuge} for 30 min. Supernatant is decanted off into a fresh Eppendorff vial, and diluted 1:100 in the iso-osmolar medium used for thin film hydration (PBS or lactose) for determination of absorbance 690 nm (A690). Formulations are stored at 4° C. or frozen at −20° C. for long term storage.
In this experiment the following three selected dihydroxychlorins were examined for formulation with 10% P123. Each of the drugs was prepared to a final concentration level of 1 mg/ml and the formulation protocol used is described in Example 5. These compounds were prepared as described in U.S. patent application Ser. Nos. 09/551,159 and 09/551,160, both filed Apr. 14, 2000, and No. 60/129,324, filed Apr. 14, 1999, all three of which are hereby incorporated by reference as if fully set forth. One of these compounds, JM4, was further tested for drug incorporation using 2.5 to 10% P123.

C=Cc1c(C)c2cc3nc(cc4[nH]c(cc5nc(cc1[nH]2)C(C)=C5CCC(=O)OC)c(CCC(=O)OC)c4C)C1(C)C3=CC=C(C(=O)O)C1C(=O)OC (stereo not drawn) [A-B3]
Drug loading, P123 [1]: 1.33 mg/mL
Drug loading, Liposome [1]: 1.84 mg/mL

C=Cc1c(C)c2cc3nc(cc4[nH]c(cc5nc(cc1[nH]2)C(C)=C5CCC(=O)OCCO)c(CCC(=O)OCCO)c4C)C1(C)C3=CC=C(C(=O)OC)C1C(=O)OC (stereo not drawn) [A-EA6, Diethyleneglycol Ester A-ring]
Vesicle size ([2]; final extrusion through 100 nm filters): 100-110 nm
Mean vesicle size ([2]; micro-thin film, 20 mL, after the first pass): 76 nm
Size ([3]; conventional thin film, pass 3): 81 + 21^2 nm
Size ([3]; conventional thin film, pass 4): 63 nm
Size ([3]; conventional thin film, pass 5): 66 nm
Size ([3]; conventional thin film, pass 6): 63 nm
Mean vesicle size ([3]; conventional thin film, 20 mL, after the first pass): 98 nm
Size ([3]; micro-thin film, pass 1): 141 + 54^2 nm
Size ([3]; micro-thin film, pass 2): 62 nm
Size ([3]; micro-thin film, pass 3): 67 nm
Size ([3]; micro-thin film, pass 4): 59 nm
Size ([3]; micro-thin film, pass 5): 60 nm
Size ([3]; micro-thin film, pass 6): 57 nm
Vesicle size ([3]; microfluidized, 10 mL volume): ~60 nm
Drug release from liposomal formulation to 5% FBS ([4]; micro-thin film batch): 72%
Drug release from liposomal formulation to 5% FBS ([4]; thin film batch): 67%
Drug loading, P123 [1]: 1.82 mg/mL
Drug loading, Liposome [1]: 0.98 mg/mL

C=Cc1c(C)c2cc3nc(cc4[nH]c(cc5nc(cc1[nH]2)C1(C)C5=CC=C(C(=O)OC)C1C(=O)OC)c(C)c4CCC(=O)OCCO)C(CCC(=O)OCCO)=C3C (stereo not drawn) [B-EA6]
Drug loading, P123 [1]: 0.37 mg/mL
Drug loading, Liposome [1]: 0.06 mg/mL
LD50 ([5]; Carrier Copolymer (P123), +FCS (10%)): 12.9* ng/ml
LD50 ([5]; Carrier Copolymer (P123), −FCS): 2.06* ng/ml
LD50 ([5]; Carrier DMSO, +FCS (10%)): 20.0 ng/mL
LD50 ([5]; Carrier DMSO, −FCS): 4.7 ng/mL
LD50 ([5]; Carrier Liposomal, +FCS (10%)): 19.7 ng/mL
LD50 ([5]; Carrier Liposomal, −FCS, 1 h drug, light 10 J/cm^2, MTT 24 h): 4.7 ng/mL
Reaction at the irradiated site ([6]; 1 mg/kg, formulated in P123, tumor bearing mice): strong phototoxic reaction (edema)
Percent (%) Mice Tumor Free ([6]; Liposomal, 1.0 mg/kg i.v., 690 nm 50J/cm2 15 min later, Day 7): 90%
Percent (%) Mice Tumor Free ([6]; Liposomal, 1.0 mg/kg, Day 14): 70%
Percent (%) Mice Tumor Free ([6]; Liposomal, 1.0 mg/kg, Day 20): 60%
Percent (%) Mice Tumor Free ([6]; Pluronic P123, 0.5 mg/kg, Day 7): 80%
Percent (%) Mice Tumor Free ([6]; Pluronic P123, 0.5 mg/kg, Day 14): 60%
Percent (%) Mice Tumor Free ([6]; Pluronic P123, 0.5 mg/kg, Day 20): 40%
Percent (%) Mice Tumor Free ([6]; Pluronic P123, 1.0 mg/kg, Day 7): PT^1
Percent (%) Mice Tumor Free ([6]; Pluronic P123, 1.0 mg/kg, Day 14): PT^1
Percent (%) Mice Tumor Free ([6]; Pluronic P123, 1.0 mg/kg, Day 20): PT^1
pH dependency of formulation stability [7]: does not display any pH-dependency

Cc1ccc(-c2c3nc(c(-c4ccc(C)cc4)c4ccc([nH]4)c(-c4ccc(C)cc4)c4nc(c(-c5ccc(C)cc5)c5ccc2[nH]5)C(O)C4O)C=C3)cc1 (stereo not drawn) [JM4, 5, 10, 15, 20-tetra (para-methyl phenyl)-2,-3-dihydroxychlorin]
Incorporation ([8]; P123 2.5% w/v): 0.92 mg/mL
Incorporation ([8]; P123 5% w/v): 1.43 mg/mL
Incorporation ([8]; P123 10% w/v): 2.00 mg/mL
